Laboratory results published in US7554012B2, “Plants and plant cells exhibiting resistance to AMPA, and methods for making the same” (priority 1998, dated 2009).
Where “and” joins values, the source holds several entries; their conditions need not be identical. Equal entries are not always repeated. Where two headings read alike, the source gives them in different places.

Key:
[1] = system: wild type Coker 312 plants; assay: AMPA spray on cotton plants; format: in vivo, cotton (Gossypium hirsutum L.)
Protocol: Previously identified plants transformed with a double gene glyphosate resistance cassette comprised of EPSPS and GOX encoding genes were determined to be resistant to glyphosate when applied at 48 ounces per acre through the 6-7 leaf stage, however severe bleaching of the leaves was observed. This phytotoxic effect was presumed to be due to the formation of AMPA as a result of GOX mediated glyphosate degradation. To test this, AMPA was sprayed at three different rates onto wild type Coker 312 plants. […] To test this, cotton plants expressing GOX or GOX plus EPSPS alone or in combination with PhnO expression were treated with [^14C]-glyphosate, and the metabolism of the isotope labeled glyphosate was monitored in leaf tissue seven days after application.

PhnO enzyme = PhnO enzyme (Escherichia coli, UniProt P16691, P2A)
Protocol: The apparent Km (Km) and Vmax (Vmax) of PhnO enzyme were determined for the substrates aminomethlyphosphonate and acetyl-CoA. Determination of the PhnO Km and Vmax were made by endpoint kinetic analyses, determining the enzyme velocity in consuming each substrate at varying substrate concentrations, and plotting the inverse of the enzyme velocity versus the inverse of the substrate concentration to produce a Lineweaver-Burk plot of enzyme kinetics. The conversion of [^14C]-AMPA to N-acetyl-[^14C]-AMPA was monitored as in example 2, using enzyme in a desalted crude lysate of E. coli expressing phnO from pMON15032, produced as in example 4. […] Enzyme reactions were incubated at 37° C. for 5 minutes and quenched with 1 volume of 100 mM sodium acetate (NaOAc), pH 4.4, in ethanol. Samples were analyzed by HPLC to determine the amount of [^14C]-AMPA converted to N-acetyl-[^14C]-AMPA.

[2] = system: recombinant cotton line 4416; assay: [^14C]-glyphosate metabolism in cotton line 4416; format: in vivo, cotton (Gossypium hirsutum L.); conditions: line 4416 plants; listed as [^14C]-Glyphosate
Protocol: Coker 312 glyphosate resistant recombinant cotton line 4416 was selected as a glyphosate resistant cotton line after transformation with pMON10149, a triple gene Agrobacterium tumefaciens mediated double border plant transformation vector containing chloroplast targeted EPSPS, GOX, and PhnO, each expressed independently from separate 35S promoters. Several 4416 R3 plants were raised from R2 seed. One leaf of each plantlet at the three or four stage was treated with a mixture of ROUNDUP ULTRA™ commercial herbicide mixture (Lot No. GLP-9701-7428-F) which had been fortified with [^14C]-glyphosate (Code No. C-2251). […] The treatment solution consisted of approximately 38 μL containing 1.60×10^6 dpm with a [^14C]-glyphosate specific activity of 1.713×10^3 dpm/μg glyphosate acid. Three or seven days after topical application the treated leaves were rinsed with water, frozen in liquid nitrogen, fractured with a spatula and then ground using a TEKMAR™ tissuemizer in 10 mL of water. The leaf extracts were adjusted to pH 3.5-4.0 with 1N HCl and approximately 4-8000 dpm were analyzed for the presence of [^14C]-metabolites by HPLC with liquid scintillation vial collection and detection (HPLC/LSC) as described in example 2. The new growth including the meristem and new leaves that emerged following topical application were also extracted and analyzed for [^14C]-metabolites.

[3] = AMPA substrate 200 nm (nanomoles)

Chain of PhnO enzyme (P16691 whole entry P2A): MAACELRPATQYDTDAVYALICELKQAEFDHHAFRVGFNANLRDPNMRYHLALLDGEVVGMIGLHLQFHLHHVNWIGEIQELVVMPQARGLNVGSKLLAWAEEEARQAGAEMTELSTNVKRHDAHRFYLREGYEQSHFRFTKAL

## NCP(=O)(O)O [AMPA, N-aminomethyl phosphonic acid]
[1]; 64 ounces per acre, eight days post-application
  phytotoxic effect on plants: Leaf chlorosis and stunted growth
[1]; 640 ounces per acre, four days post-application
  phytotoxic effect on plants: Leaf chlorosis and stunted growth
PhnO enzyme; [3]
  % Turnover: 39.5%
  Velocity: 79 nm per minute per mg of protei
PhnO enzyme; AMPA substrate 400 nm
  % Turnover: 35.1%
  Velocity: 140 nm per minute per mg of protei
PhnO enzyme; AMPA substrate 800 nm
  % Turnover: 32.9%
  Velocity: 263 nm per minute per mg of protei
PhnO enzyme; AMPA substrate 1200 nm
  % Turnover: 26.8%
  Velocity: 322 nm per minute per mg of protei
PhnO enzyme; AMPA substrate 1600 nm
  % Turnover: 26.2%
  Velocity: 426 nm per minute per mg of protei
PhnO enzyme; AMPA substrate 2000 nm
  % Turnover: 22.1%
  Velocity: 442 nm per minute per mg of protei
PhnO enzyme; AMPA substrate 2400 nm
  % Turnover: 19.2%
  Velocity: 461 nm per minute per mg of protei
PhnO enzyme; AMPA substrate 2800 nm
  % Turnover: 17.6%
  Velocity: 493 nm per minute per mg of protei
PhnO enzyme; AMPA substrate 3200 nm
  % Turnover: 17.3%
  Velocity: 554 nm per minute per mg of protei
PhnO enzyme; AMPA substrate 3600 nm
  % Turnover: 14.5%
  Velocity: 522 nm per minute per mg of protei
PhnO enzyme; AMPA substrate 4000 nm
  % Turnover: 13.6%
  Velocity: 544 nm per minute per mg of protei
PhnO enzyme; AMPA substrate 6000 nm
  % Turnover: 12.7%
  Velocity: 762 nm per minute per mg of protei
PhnO enzyme; AMPA substrate 7600 nm
  % Turnover: 10%
  Velocity: 760 nm per minute per mg of protei
PhnO enzyme; AMPA substrate, Lineweaver-Burk plot
  apparent Vmax: about 824 U/mg protein
PhnO enzyme; read-out: apparent Km of PhnO for AMPA as a substrate, Lineweaver-Burk plot of Table 8 data
  Km: ~9 mM

## N-phosphono-methyl-glycine [Glyphosate]
[2]
  % [^14C] metabolite in Glyphosate Treated Leaf Extract: AMPA: 2.1% and 2.0% and 1.6% and 2.2% and 2.5%
  % [^14C] metabolite in Glyphosate Treated Leaf Extract: N-Acetyl-AMPA: 27-74%
  % [^14C] metabolite in New Growth Extract: AMPA: 0.2% and 0.5% and 2.5%
  % [^14C] metabolite in New Growth Extract: Glyphosate: greater than 90%
  % [^14C] metabolite in New Growth Extract: N-Acetyl AMPA: greater than 90%
